In patent US9040528B2, “Chemical compounds 542” (AstraZeneca AB, priority 2008, dated 2015) one finds IC50 data, which are given here for 20 compounds.

Molecules are shown by their SMILES.

In the experiment the target is Escherichia coli DNA gyrase A/B tetramer (Escherichia coli (strain K12), UniProt P0AES4+P0AES6). Briefly: DNA gyrase supercoiling activity fluorescence polarisation assay. The experiment is classed as biochemical. The settings on record: 5 nM enzyme, relaxed plasmid, 0.3 mM ATP, ambient temperature; read-out: E. coli DNA gyrase supercoiling IC50. The method, boiled down:
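Supercoiling reactions quenched with 40 nM 5′-BODIPY-FL triplex-forming oligonucleotide probe in pH 3.5 NaCl/sodium acetate buffer; after 60 min, fluorescence anisotropy read (ex 485/em 535 nm). IC50 by nonlinear regression, normalised to 0.8% DMSO (100% activity) and 5 μM ciprofloxacin (0% activity).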
(In fluorescence polarisation assays a small probe gives low polarisation when free and higher when bound to something large.)
As to `C[C@@H]1CN2c3c(cc4c(-n5cc(-c6cnccn6)cn5)noc4c3F)CC3(C(=O)NC(=O)NC3=O)[C@H]2[C@H](C)O1` (relative stereo) [Example 35, (2R,4S,4aS)-rel-11-fluoro-2,4-dimethyl-8-[4-(pyrazin-2-yl)-1H-pyrazol-1-yl]-1,2,4,4a-tetrahydro-2′H,6H-spiro[1,4-oxazino[4,3-a][1,2]oxazolo[4,5-g]quinoline-5,5′-pyrimidine]-2′,4′,6′(1′H,3′H)-trione], the IC50 turned out to be 30 µM.

For `CCOC(=O)c1cnn(-c2noc3c(F)c4c(cc23)CC2(C(=O)NC(=O)NC2=O)[C@H]2[C@H](C)O[C@H](C)CN42)c1` (relative stereo) [Example 37, ethyl 1-[(2R,4S,4aS)-rel-11-fluoro-2,4-dimethyl-2′,4′,6′-trioxo-1,1′,2,3′,4,4′,4a,6′-octahydro-2′H,6H-spiro[1,4-oxazino[4,3-a][1,2]oxazolo[4,5-g]quinoline-5,5′-pyrimidin]-8-yl]-1H-pyrazole-4-carboxylate], the IC50 turned out to be 8.5 µM.

On to `C[C@@H]1CN2c3c(cc4c(-c5ccccn5)noc4c3Cl)CC3(C(=O)NC(=O)NC3=O)[C@H]2[C@H](C)O1` (relative stereo) [Example 38, (2R,4S,4aS)-rel-11-chloro-2,4-dimethyl-8-(pyridin-2-yl)-1,2,4,4a-tetrahydro-2′H,6H-spiro[1,4-oxazino[4,3-a][1,2]oxazolo[4,5-g]quinoline-5,5′-pyrimidine]-2′,4′,6′(1′H,3′H)-trione], for which the IC50 amounted to 0.8 µM.

For `Cc1ccc(-c2noc3c(Cl)c4c(cc23)CC2(C(=O)NC(=O)NC2=O)[C@H]2[C@H](C)O[C@H](C)CN42)cn1` (relative stereo) [Example 40, (2R,4S,4 aS)-rel-11-chloro-2,4-dimethyl-8-(6-methylpyridin-3-yl)-1,2,4,4a-tetrahydro-2′H,6H-spiro[1,4-oxazino[4,3-a][1,2]oxazolo[4,5-g]quinoline-5,5′-pyrimidine]-2′,4′,6′(1′H,3′H)-trione], the IC50 was 1.6 µM.

In the case of `C[C@@H]1CN2c3c(cc4c(-c5cncs5)noc4c3Cl)CC3(C(=O)NC(=O)NC3=O)[C@H]2[C@H](C)O1` (relative stereo) [Example 41, (2R,4S,4aS)-rel-11-chloro-2,4-dimethyl-8-(1,3-thiazol-5-yl)-1,2,4,4a-tetrahydro-2′H,6H-spiro[1,4-oxazino[4,3-a][1,2]oxazolo[4,5-g]quinoline-5,5′-pyrimidine]-2′,4′,6′(1′H,3′H)-trione], the IC50 is 0.8 µM.

For the compound `C[C@@H]1CN2c3c(cc4c(-c5ccncn5)noc4c3Cl)CC3(C(=O)NC(=O)NC3=O)[C@H]2[C@H](C)O1` (relative stereo) [Example 43, (2R,4S,4aS)-rel-11-chloro-2,4-dimethyl-8-(pyrimidin-4-yl)-1,2,4,4a-tetrahydro-2′H,6H-spiro[1,4-oxazino[4,3-a][1,2]oxazolo[4,5-g]quinoline-5,5′-pyrimidine]-2′,4′,6′(1′H,3′H)-trione], the IC50 worked out at 0.5 µM.

For the compound `C[C@@H]1CN2c3c(cc4c(-c5ccnnc5)noc4c3Cl)CC3(C(=O)NC(=O)NC3=O)[C@H]2[C@H](C)O1` (relative stereo) [Example 45, (2R,4S,4aS)-rel-11-chloro-2,4-dimethyl-8-(pyridazin-4-yl)-1,2,4,4a-tetrahydro-2′H,6H-spiro[1,4-oxazino[4,3-a][1,2]oxazolo[4,5-g]quinoline-5,5′-pyrimidine]-2′,4′,6′(1′H,3′H)-trione], the IC50 is 1.6 µM.

Turning to `C[C@@H]1CN2c3c(cc4c(-c5ccncc5)noc4c3Cl)CC3(C(=O)NC(=O)NC3=O)[C@H]2[C@H](C)O1` (relative stereo) [Example 46, (2R,4S,4aS)-rel-11-chloro-2,4-dimethyl-8-(pyridin-4-yl)-1,2,4,4a-tetrahydro-2′H,6H-spiro[1,4-oxazino[4,3-a][1,2]oxazolo[4,5-g]quinoline-5,5′-pyrimidine]-2′,4′,6′(1′H,3′H)-trione], the IC50 was 1 µM.

On to `C[C@@H]1CN2c3c(cc4c(-c5cccnc5)noc4c3Cl)CC3(C(=O)NC(=O)NC3=O)[C@H]2[C@H](C)O1` (relative stereo) [Example 47, (2R,4S,4aS)-rel-11-chloro-2,4-dimethyl-8-(pyridin-3-yl)-1,2,4,4a-tetrahydro-2′H,6H-spiro[1,4-oxazino[4,3-a][1,2]oxazolo[4,5-g]quinoline-5,5′-pyrimidine]-2′,4′,6′(1′H,3′H)-trione], for which the IC50 amounted to 0.3 µM.

For the compound `C[C@@H]1CN2c3c(cc4c(-c5nccs5)noc4c3Cl)CC3(C(=O)NC(=O)NC3=O)[C@H]2[C@H](C)O1` (relative stereo) [Example 48, (2R,4S,4aS)-rel-11-chloro-2,4-dimethyl-8-(1,3-thiazol-2-yl)-1,2,4,4a-tetrahydro-2′H,6H-spiro[1,4-oxazino[4,3-a][1,2]oxazolo[4,5-g]quinoline-5,5′-pyrimidine]-2′,4′,6′(1′H,3′H)-trione], the IC50 was determined as 1 µM.

Consider `COCc1noc2c(Cl)c3c(cc12)CC1(C(=O)NC(=O)NC1=O)[C@H]1[C@H](C)O[C@H](C)CN31` (relative stereo) [Example 49, (2R,4S,4aS)-rel-11-chloro-8-(methoxymethyl)-2,4-dimethyl-1,2,4,4a-tetrahydro-2′H,6H-spiro[1,4-oxazino[4,3-a][1,2]oxazolo[4,5-g]quinoline-5,5′-pyrimidine]-2′,4′,6′(1′H,3′H)-trione], for which the IC50 stood at 1.7 µM.

With `CCCN(C)c1noc2c(F)c3c(cc12)CC1(C(=O)NC(=O)NC1=O)[C@H]1[C@H](C)O[C@H](C)CN31` (relative stereo) [Example 50, (2R,4S,4aS)-rel-11-fluoro-2,4-dimethyl-8-[methyl(propyl)amino]-1,2,4,4a-tetrahydro-2′H,6H-spiro[1,4-oxazino[4,3-a][1,2]oxazolo[4,5-g]quinoline-5,5′-pyrimidine]-2′,4′,6′(1′H,3′H)trione], the IC50 was determined as 0.5 µM.

Consider `COc1noc2c(F)c3c(cc12)CC1(C(=O)NC(=O)NC1=O)[C@H]1[C@H](C)O[C@H](C)CN31` (relative stereo) [Example 51, (2R,4S,4aS)-rel-11-fluoro-8-methoxy-2,4-dimethyl-1,2,4,4a-tetrahydro-2′H,6H-spiro[1,4-oxazino[4,3-a][1,2]oxazolo[4,5-g]quinoline-5,5′-pyrimidine]-2′,4′,6′(1′H,3′H)-trione], for which the IC50 came to 1 µM.

`C[C@@H]1CN2c3c(cc4c(OCc5ccccc5)noc4c3F)CC3(C(=O)NC(=O)NC3=O)[C@H]2[C@H](C)O1` (relative stereo) [Example 52, (2R,4S,4aS)-rel-8-(benzyloxy)-11-fluoro-2,4-dimethyl-1,2,4,4a-tetrahydro-2′H,6H-spiro[1,4-oxazino[4,3-a][1,2]oxazolo[4,5-g]quinoline-5,5′-pyrimidine]-2′,4′,6′(1′H,3′H)-trione]: the IC50 is 2.4 µM.

Turning to `Cc1ncn(-c2noc3c(F)c4c(cc23)CC2(C(=O)NC(=O)NC2=O)[C@H]2[C@H](C)O[C@H](C)CN42)n1` (relative stereo) [Example 54, (2R,4S,4aS)-rel-11-fluoro-2,4-dimethyl-8-(3-methyl-1H-1,2,4-triazol-1-yl)-1,2,4,4a-tetrahydro-2′H,6H-spiro[1,4-oxazino[4,3-a][1,2]oxazolo[4,5-g]quinoline-5,5′-pyrimidine]-2′,4′,6′(1′H,3′H)-trione], the IC50 came to 2 µM.

For the compound `C[C@@H]1CN2c3c(cc4c(-n5cnc(C#N)n5)noc4c3F)CC3(C(=O)NC(=O)NC3=O)[C@H]2[C@H](C)O1` (relative stereo) [Example 55, 1-[(2R,4S,4aS)-rel-11-fluoro-2,4-dimethyl-2′,4′,6′-trioxo-1,1′,2,3′,4,4′,4a,6′-octahydro-2′H,6H-spiro[1,4-oxazino[4,3-a][1,2]oxazolo[4,5-g]quinoline-5,5′-pyrimidin]-8-yl]-1H-1,2,4-triazole-3-carbonitrile], the IC50 was 2.6 µM.

Consider `C[C@@H]1CN2c3c(cc4c(-n5ccnn5)noc4c3F)CC3(C(=O)NC(=O)NC3=O)[C@H]2[C@H](C)O1` (relative stereo) [Example 57, (2R,4S,4aS)-rel-11-fluoro-2,4-dimethyl-8-(1H-1,2,3-triazol-1-yl)-1,2,4,4a-tetrahydro-2′H,6H-spiro[1,4-oxazino[4,3-a][1,2]oxazolo[4,5-g]quinoline-5,5′-pyrimidine]-2′,4′,6′(1′H,3′H)-trione], for which the IC50 turned out to be 1.5 µM.

For `C[C@@H]1CN2c3c(cc4c(-n5ccnc5)noc4c3F)CC3(C(=O)NC(=O)NC3=O)[C@H]2[C@H](C)O1` (relative stereo) [Example 58, (2R,4S,4aS)-rel-11-fluoro-8-(1H-imidazol-1-yl)-2,4-dimethyl-1,2,4,4a-tetrahydro-2′H,6H-spiro[1,4-oxazino[4,3-a][1,2]oxazolo[4,5-g]quinoline-5,5′-pyrimidine]-2′,4′,6′(1′H,3′H)-trione], the IC50 was 0.5 µM.

On to `C[C@@H]1CN2c3c(cc4c(-n5cnc(C(F)(F)F)c5)noc4c3F)CC3(C(=O)NC(=O)NC3=O)[C@H]2[C@H](C)O1` (relative stereo) [Example 59, (2R,4S,4aS)-rel-11-fluoro-2,4-dimethyl-8-[4-(trifluoromethyl)-1H-imidazol-1-yl]-1,2,4,4a-tetrahydro-2′H,6H-spiro[1,4-oxazino[4,3-a][1,2]oxazolo[4,5-g]quinoline-5,5′-pyrimidine]-2′,4′,6′(1′H,3′H)-trione], for which the IC50 turned out to be 6.6 µM.

`Cc1cnn(-c2noc3c(F)c4c(cc23)CC2(C(=O)NC(=O)NC2=O)[C@H]2[C@H](C)O[C@H](C)CN42)c1` (relative stereo) [Example 60, (2R,4S,4aS)-rel-11-fluoro-2,4-dimethyl-8-(4-methyl-1H-pyrazol-1-yl)-1,2,4,4a-tetrahydro-2′H,6H-spiro[1,4-oxazino[4,3-a][1,2]oxazolo[4,5-g]quinoline-5,5′-pyrimidine]-2′,4′,6′(1′H,3′H)-trione]: the IC50 stood at 1.2 µM.

As a reminder, the IC50 is the concentration that gives 50% inhibition.
